Results taken from patent publication US7589078B2, “Anti-viral nucleoside analogs and methods for treating viral infections, especially HIV infections” (Yale University, priority 2003, dated 2009).
Entries after “also recorded” stand apart in the source; their conditions may differ. Where two headings read alike, the source gives them in different places.

Tests used:
[1] = test system: HIV; details: Maag et al (29), O-Yang et al (32); cited from earlier work
[2] = test system: CEM cells; test: Cellular toxicity in CEM cells (cell counts); details: for IC50: Homo sapiens, CCRF-CEM, 96 h, read-out: Cellular ID50
Method: The basic procedures are similar. The cells are seeded a low concentration, then serial dilutions of test compound are added. […] After 48 to 96 h incubation at 37° C. in a 5% CO2 humidified incubator the assay is ended. The drug treated samples are compared to the untreated controls. This is accomplished in suspension cell lines by counting cell numbers either with a hemocytometer or by using a Coulter Counter.
The numbers in parentheses represent the mean and standard deviations of percentage of untreated CEM control cells at the concentration indicated.

[3] = test system: HIV-1 strain IIIB; details: MT-2 cells; EC50 reported previously (17); read-out: EC50: effective concentration required to achieve 50% protection from HIV in MT-2 cells; cited from earlier work
[4] = Acid stability study; format: physicochemical; details: 1N HCl, pH 1, 37° C., 2.5 h, HPLC
Method: Acid stability studies: Nucleoside samples were mixed with 1N HCl and incubated at 37° C. for 2.5 h. Then the samples were examined by HPLC using a Bechman ODS column employing a gradient of water to 80% methanol.

[5] = biological target: T1, thymidine kinase (TK-1) (Homo sapiens, UniProt P04183); test: Monophosphorylation of analogs by thymidine kinase; format: biochemical; set-up: phosphorylated by thymidine kinase (TK-1) from CEM cells; endogenous in cells; details: for Relative Vmax: 250 μM dThd or analog, 2.4 mM ATP, 0.07 unit TK-1, 37° C., 285 min, dThd = 100
T1 sequence (P04183 1-234): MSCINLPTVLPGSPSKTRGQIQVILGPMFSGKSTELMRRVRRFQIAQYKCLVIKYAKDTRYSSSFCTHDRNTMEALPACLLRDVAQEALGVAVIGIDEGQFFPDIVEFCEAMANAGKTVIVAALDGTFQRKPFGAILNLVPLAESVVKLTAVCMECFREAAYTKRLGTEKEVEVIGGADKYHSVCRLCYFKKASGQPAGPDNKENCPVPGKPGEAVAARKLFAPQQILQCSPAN
Method: Monophosphorylation of Analogs by Thymidine Kinase: All the analogs were tested for their ability to be phosphorylated by thymidine kinase (TK-1) from CEM cells. This enzyme was purified by an affinity column technique developed in this laboratory (7). […] At the end of the incubation time the reaction was stopped by the addition of 3 parts cold HPLC grade methanol. After incubating on ice for at least 10 min. the methanol insoluble material is precipitated by centrifugation and the methanol soluble supernatants were placed into clean microfuge tubes. These samples were brought to dryness in a Speedvac Centrifuge. The samples were dissolved in water and separated on a Shimatzu HPLC model SCL 10Avp using a gradient of water to 300 mM potassium phosphate and a Whatman 10/25 particle SAX column. Km and relative Vmax studies were done in a similar fashion, using the same mixture and different amounts of substrate and enzyme.

[6] = biological target: T2, thymidine phosphorylase (TP) (Homo sapiens, UniProt P19971); test: Thymidine phosphorylase assay; format: in vitro ADME; details: partially purified TP from human liver
T2 construct: using a partially purified prepartion of human liver extract (28) as a source of the thymidine phosphorylase (TP); from tissue; host or cells: human liver extract, partially purified
T2 sequence (P19971 11-482): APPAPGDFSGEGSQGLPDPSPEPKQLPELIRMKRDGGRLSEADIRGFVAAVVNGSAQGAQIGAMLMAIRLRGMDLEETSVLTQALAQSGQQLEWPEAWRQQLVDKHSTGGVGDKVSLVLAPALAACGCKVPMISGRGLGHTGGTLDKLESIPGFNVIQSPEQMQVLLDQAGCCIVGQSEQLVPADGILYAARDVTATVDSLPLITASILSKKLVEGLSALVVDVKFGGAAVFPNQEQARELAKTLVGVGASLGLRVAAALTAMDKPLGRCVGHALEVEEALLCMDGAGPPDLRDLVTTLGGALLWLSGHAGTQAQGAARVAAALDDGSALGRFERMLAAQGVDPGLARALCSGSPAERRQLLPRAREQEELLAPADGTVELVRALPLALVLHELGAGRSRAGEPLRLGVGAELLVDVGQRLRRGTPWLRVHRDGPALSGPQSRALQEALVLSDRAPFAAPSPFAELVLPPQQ
Method: Thymidine Phosphorylase Assays: Nucleoside analogs (100 μM) were incubated in 75 mM potassium phosphate buffer pH 7.3 at 37° C. using a partially purified prepartion of human liver extract (28) as a source of the thymidine phosphorylase (TP). After incubation, the reaction was stopped by the addition of trichloroacetic acid to a final concentration of 15%. The samples were then incubated on ice. After the acid insoluble components were removed by centrifugation, the supernatant was neutralized by two extractions with one half volume of trioctylamine/freon (45:55). The aqueous supernatants were examined by HPLC using the Beckman ODS column method, as described in Acid Stability Studies.

[7] = test system: MT-2 cells; test: Cellular toxicity, MT-2 cell growth; format: cell-based; details: for IC50: Homo sapiens, MT2, MT-2 cells, read-out: ID50: concentration required to inhibit MT-2 cell growth by 50%
Source text: (§1) The basic procedures are similar.

[8] = test system: H-9 cells; test: Toxicity in H-9 cells alone and in combination (Coulter Counter); format: cell-based; details: for Percent of Untreated Controls: H-9 cells, 48 h
Source text: as §1

[9] = test system: mtDNA content of CEM cells; test: Mitochondrial DNA content in CEM cells (Southern blot); format: cell-based; details: for IC50: four days, read-out: Mitochondrial DNA Content ID50
Method: Mitochondrial DNA: The effect of nucleoside analogs on mtDNA content was assessed as described previously (2). […] Cells treated with drugs at various concentrations either as single agents or in combination were grown for four days. Cells were then harvested, treated with proteinase K and DNase free RNase. Extracts were applied to nylon membranes and hybridized with an mtDNA probe. After stripping the membrane the load was normalized by rehybridizing the membrane with an Alu probe. Blots were quantitated with a Molecular Dynamics personal densitometer SI with ImageQuaNT analysis software.

[10] = biological target: T1, thymidine kinase (TK-1); test: Thymidine kinase assay with added nucleoside ([14C]-dThd to dTMP); details: [14C]-dThd 25 μM, added nucleoside 250 μM; compared to reactions with no additions
Method: After two additional washes in ethanol, the discs were dried and placed in scintillation vials that contained 5 ml SafeScint Scintillation Cocktail (American Bioanalytical, Natick, Mass.). The amount of radioactivity, which represents the amount of dTMP formed, was quantitated in a Beckman LS5000TD Scintillation Counter (Beckman Instruments Inc., Palo Alto, Calif.).

[11] = test system: HIV-1 strain IIIB; test: Antiviral activity in MT-2 cells infected with HIV-1 strain IIIB (MTT); format: cell-based
Method: Determination of antiviral activity: Compounds were tested in MT-2 cells infected with HIV-1 strain IIIB essentially as described previously (31). […]. Calculations of the percent protection and isobologram combination studies are described (12).

[12] = test system: CEM cellular extract supplemented with partially purified TK-1 and recombinant human dTMP kinase; test: Phosphorylation to triphosphate in CEM cellular extract with TK-1 and dTMP kinase; format: biochemical; details: unpublished results
[13] = substrate: C#C[C@@]1(CO)C=C[C@H](n2cc(C)c(=O)[nH]c2=O)O1; test: Monophosphorylation of analogs by thymidine kinase; format: biochemical; details: other: phosphorylation by human cytoplasmic thymidine kinase; pH 7.5
Method: Monophosphorylation of Analogs by Thymidine Kinase: All the analogs were tested for their ability to be phosphorylated by thymidine kinase (TK-1) from CEM cells. […] At the end of the incubation time the reaction was stopped by the addition of 3 parts cold HPLC grade methanol. After incubating on ice for at least 10 min. the methanol insoluble material is precipitated by centrifugation and the methanol soluble supernatants were placed into clean microfuge tubes. These samples were brought to dryness in a Speedvac Centrifuge. The samples were dissolved in water and separated on a Shimatzu HPLC model SCL 10Avp using a gradient of water to 300 mM potassium phosphate and a Whatman 10/25 particle SAX column. Km and relative Vmax studies were done in a similar fashion, using the same mixture and different amounts of substrate and enzyme.

[14] = substrate: Cc1cn([C@H]2C=C[C@@H](CO)O2)c(=O)[nH]c1=O; test: purified protein, by the assay type; details: other: phosphorylation by human cytoplasmic thymidine kinase; pH 7.5; 37.0 °C

For Cc1cn([C@H]2C=C[C@](CO)(N=[N+]=[N-])O2)c(=O)[nH]c1=O [4′-azido D4T], the “Anti-HIV activity as described by others” value [1] is given as “inactive against HIV at non-toxic levels”.

For C#C[C@@]1(CO)C=C[C@H](n2cc(C)c(=O)[nH]c2=O)O1 [4′-ethynyl D4T, 2′,3′-didehydro-3′-deoxy-4′-ethynylthymidine], the “Cell count, percentage of untreated CEM control cells” value ([2]; CEM cells, at 100 μM) is listed as 77 ± 16%, the IC50 [2] is listed as greater than 100 µM and the EC50 [3] is listed as 0.25 ± 0.14 µM. The “Stability at pH 1” value [4] was “No detectable breakdown”, the “Relative Vmax” value [5] was 3.8 ± 0.8 and the “Rate of phosphorylation by TK-1, in words” value ([5]; purified human TK-1) was “superior to D4T; also recorded: twice as fast as D4T”. The “Break down by thymidine phosphorylase” value ([6]; 100 μM nucleoside, 37° C., FIG. 11) was “below the detection level”, the IC50 [7] was greater than 256 µM and the “Toxicity compared with D4T” value ([7]; MT-2/IIIB system) was “less toxic than the parental compound D4T”. For the same molecule, the “Toxic interaction on cell growth in combination with 3TC and LFd4C” value ([8]; H9 cells, 48 h assay) was “no significant increase in toxic interactions”, the “Percent of Untreated Controls” value ([8]; 25 μM 4′-ethynyl D4T plus 5 μM 3TC) was 98 ± 2% and the “Percent of Untreated Controls” value ([8]; 25 μM 4′-ethynyl D4T plus 5 μM LFd4C) was 62 ± 3%. The “Percent of Untreated Controls” value ([8]; 25 μM 4′-ethynyl D4T plus 10 μM LFd4C) was 58 ± 4%, the “Percent of Untreated Controls” value ([8]; 25 μM 4′-ethynyl D4T plus 20 μM 3TC) was 88 ± 3% and the “Percent of Untreated Controls” value ([8]; 25 μM 4′-ethynyl D4T plus 100 μM 3TC) was 85 ± 3%. For the same molecule, the “Percent of Untreated Controls” value ([8]; 25 μM 4′-ethynyl D4T, no additive) was 97 ± 7%, the “Percent of Untreated Controls” value ([8]; 50 μM 4′-ethynyl D4T plus 5 μM 3TC) was 99 ± 10% and the “Percent of Untreated Controls” value ([8]; 50 μM 4′-ethynyl D4T plus 5 μM LFd4C) was 72 ± 5%. For the same molecule, the “Percent of Untreated Controls” value ([8]; 50 μM 4′-ethynyl D4T plus 10 μM LFd4C) was 64 ± 5%, the “Percent of Untreated Controls” value ([8]; 50 μM 4′-ethynyl D4T plus 20 μM 3TC) was 87 ± 6% and the “Percent of Untreated Controls” value ([8]; 50 μM 4′-ethynyl D4T plus 100 μM 3TC) was 84 ± 6%. The “Percent of Untreated Controls” value ([8]; 50 μM 4′-ethynyl D4T, no additive) was 102 ± 6%, the IC50 ([9]; Homo sapiens, CCRF-CEM, 96 h) was greater than 100 µM and the “Mitochondrial DNA content, percentage of untreated CEM control cells” value ([9]; at 100 μM) was 94 ± 4%. The IC50 [9] was 100 µM, the “Percent of Activity” value [10] was 83.9 ± 6.1% and the EC50 ([11]; Human immunodeficiency virus 1, MT2, MT-2/HIV IIIB system, FIG. 10, read-out: EC50 for single agents (isobologram study)) was 0.5 µM. For the same molecule, the “Anti-HIV activity compared with D4T” value ([11]; MT-2/IIIB anti HIV-1 system, FIG. 8) was “more effective against HIV”, the “Effect of addition of dCyd on the antiviral activity” value ([11]; dCyd 10 μM in the presence of THU 5 μM, FIG. 9) was “no significant effect” and the “Effect of addition of dThd on the antiviral activity” value ([11]; dThd 10 μM and 1 μM added to standard antiviral assay, FIG. 9) was “decreased the antiviral effect”. For the same molecule, the “Antiviral interaction in combination (isobologram)” value ([11]; in combination with 3TC) was “synergistic”, the “Antiviral interaction in combination (isobologram)” value ([11]; in combination with AZT (data not shown)) was “only additive” and the “Antiviral interaction in combination (isobologram)” value ([11]; in combination with LFd4C) was “synergistic”. For the same molecule, the “Antiviral interaction in combination (isobologram)” value ([11]; in combination with ddI (data not shown)) was “only additive”.

In the case of Cc1cn([C@H]2C=C[C@@H](CO)O2)c(=O)[nH]c1=O [D4T, 2′,3′-Didehydro-3′-deoxythymidine, reference compound], the IC50 [2] is reported as 60 ± 18 µM, the “Stability at pH 1” value [4] is reported as “No detectable breakdown” and the “Relative Vmax” value [5] is reported as 2.1 ± 0.7. For the same molecule, the “Rate of conversion to the monophosphate form” value ([5]; purified human TK-1) was “approximately 2% of dThd”, the “Phosphorylation to the triphosphate metabolite” value [12] was “more efficiently phosphorylated to the triphosphate metabolite than 4′-ethynyl D4T” and the “Break down by thymidine phosphorylase, times slower than dThd” value [6] was “at least 10 times”. For the same molecule, the IC50 [7] was 98 ± 10.8 µM, the IC50 ([9]; Homo sapiens, CCRF-CEM, 96 h) was 9.3 ± 1.4 µM and the “Percent of Activity” value [10] was 106.3 ± 7.7%. The EC50 ([11]; Human immunodeficiency virus 1, IIIB, MT2, read-out: EC50: effective concentration required to achieve 50% protection from HIV in MT-2 cells) was 1.3 ± 0.4 µM and the EC50 ([11]; Human immunodeficiency virus 1, IIIB, MT2, read-out: EC50 for single agents (isobologram study)) was 1.4 µM.

B1: thymidine kinase (TK-1) (Homo sapiens) (protein)
chain: MSCINLPTVLPGSPSKTRGQIQVILGPMFSGKSTELMRRVRRFQIAQYKCLVIKYAKDTRYSSSFCTHDRNTMEALPACLLRDVAQEALGVAVIGIDEGQFFPDIVEFCEAMANAGKTVIVAALDGTFQRKPFGAILNLVPLAESVVKLTAVCMECFREAAYTKRLGTEKEVEVIGGADKYHSVCRLCYFKKASGQPAGPDNKENCPVPGKPGEAVAARKLFAPQQILQCSPAN
notes: phosphorylated by thymidine kinase (TK-1) from CEM cells; endogenous in cells
Work on B1 yielded a Km [13] of 52 µM and a Km [14] of 133 µM.
